In ChEMBL document CHEMBL3808366, “Facile and efficient synthesis and biological evaluation of 4-anilinoquinazoline derivatives as EGFR inhibitors” (Bioorg Med Chem Lett, 2016):
Active and inactive are the calls of the source. The calls are words filed in the database; no cut-off is given here.

How the values were obtained:
HepG2 = assay: Antiproliferative activity against human HepG2 cells over expressing EGFR after 48 hrs by MTT assay; type: functional, cell-based; conditions: HepG2, 48 h
NCI-H1975 = assay: Antiproliferative activity against human NCI-H1975 cells over expressing EGFR after 48 hrs by MTT assay; type: functional, cell-based; conditions: NCI-H1975, 48 h
[1] = Antiproliferative activity against human SMMC7721 cells over expressing EGFR after 48 hrs by MTT assay; type: functional, cell-based; conditions: SMMC-7721, 48 h
[2] = target: Epidermal growth factor receptor (Homo sapiens) (UniProt P00533); conditions: NCI-H1975, at 1 µM
Sequence of Epidermal growth factor receptor (Homo sapiens) (P00533 whole entry): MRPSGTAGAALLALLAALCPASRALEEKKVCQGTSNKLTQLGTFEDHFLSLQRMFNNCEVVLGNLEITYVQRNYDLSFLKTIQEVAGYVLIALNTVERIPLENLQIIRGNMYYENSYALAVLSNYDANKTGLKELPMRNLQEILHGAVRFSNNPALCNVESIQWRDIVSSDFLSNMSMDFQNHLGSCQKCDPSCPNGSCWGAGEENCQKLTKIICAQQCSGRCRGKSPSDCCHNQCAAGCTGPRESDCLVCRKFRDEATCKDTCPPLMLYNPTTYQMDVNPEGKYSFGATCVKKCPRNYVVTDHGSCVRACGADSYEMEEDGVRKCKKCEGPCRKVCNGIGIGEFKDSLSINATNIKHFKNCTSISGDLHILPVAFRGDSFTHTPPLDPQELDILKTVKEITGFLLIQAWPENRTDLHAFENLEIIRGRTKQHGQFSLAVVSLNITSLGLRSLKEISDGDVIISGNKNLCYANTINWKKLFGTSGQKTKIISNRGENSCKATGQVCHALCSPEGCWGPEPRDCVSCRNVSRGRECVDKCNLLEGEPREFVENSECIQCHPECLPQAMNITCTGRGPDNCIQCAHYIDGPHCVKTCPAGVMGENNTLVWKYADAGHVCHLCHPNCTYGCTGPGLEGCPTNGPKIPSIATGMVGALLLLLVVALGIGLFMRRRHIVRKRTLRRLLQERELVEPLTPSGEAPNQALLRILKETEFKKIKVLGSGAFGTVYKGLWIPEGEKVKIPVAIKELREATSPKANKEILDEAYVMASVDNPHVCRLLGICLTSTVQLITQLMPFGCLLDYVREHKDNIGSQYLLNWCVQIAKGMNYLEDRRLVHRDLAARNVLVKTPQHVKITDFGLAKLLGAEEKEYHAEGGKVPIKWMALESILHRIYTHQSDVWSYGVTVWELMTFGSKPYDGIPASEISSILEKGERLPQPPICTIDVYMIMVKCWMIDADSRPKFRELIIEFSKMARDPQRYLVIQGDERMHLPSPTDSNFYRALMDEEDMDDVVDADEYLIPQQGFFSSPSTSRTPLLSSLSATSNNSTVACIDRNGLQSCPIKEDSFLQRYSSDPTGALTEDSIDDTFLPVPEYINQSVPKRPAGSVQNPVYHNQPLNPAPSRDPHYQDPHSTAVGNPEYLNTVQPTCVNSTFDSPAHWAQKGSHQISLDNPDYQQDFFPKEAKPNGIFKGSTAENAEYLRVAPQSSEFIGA
Description: Inhibition of EGFR autophosphorylation at Tyr1068 site in human NCI-H1975 cells at 1 uM by western blotting analysis

Row | Structure (SMILES) | IC50 (HepG2) [µM] | IC50 (NCI-H1975) [µM] | IC50 [1] [µM] | inhibition [2]
1 | c1ccc(Nc2ncnc3ccccc23)cc1 | 65.8 | 35.6 | 35.6 | –
2 | CNCCC(=O)Nc1ccc2ncnc(Nc3ccc(F)c(Cl)c3)c2c1 | 14.8 | 0.68 | 20.9 | –
3 | CN(C)CCC(=O)Nc1ccc2ncnc(Nc3ccc(F)c(Cl)c3)c2c1 | 9.36 | 0.36 | 9.54 | Active
4 | O=C(CCN1CCOCC1)Nc1ccc2ncnc(Nc3ccc(F)c(Cl)c3)c2c1 | 16.3 | 3.01 | 19.6 | –
5 | COc1cccc(Nc2ncnc3ccccc23)c1 | 24.2 | 31.3 | 15.6 | –
6 | Fc1ccc(Nc2ncnc3ccccc23)cc1 | 29 | 23.5 | 22 | –
7 | O=C(CCN1CCCCC1)Nc1ccc2ncnc(Nc3ccc(F)c(Cl)c3)c2c1 | 8.59 | 1.85 | 12.6 | –
8 | Fc1cccc(Nc2ncnc3ccccc23)c1 | 13.2 | 7.58 | 15 | –
9 | Clc1cccc(Nc2ncnc3ccccc23)c1 | 23.5 | 10.4 | 22 | –
10 | Brc1cccc(Nc2ncnc3ccccc23)c1 | 78.6 | 10.6 | 24.7 | –
11 | Cc1nc(Nc2ccc(F)c(Cl)c2)c2cc(NC(=O)CCN3CCCCC3)ccc2n1 | 3.21 | 0.87 | 2.84 | –
12 | CNCCC(=O)Nc1ccc2nc(C)nc(Nc3ccc(F)c(Cl)c3)c2c1 | 1.13 | 0.48 | 1.98 | –
13 | Fc1ccc(Nc2ncnc3ccccc23)cc1Cl | > 100 | 4.51 | 50.1 | –
14 | Cc1nc(Nc2ccc(F)c(Cl)c2)c2cc(NC(=O)CCN3CCOCC3)ccc2n1 | 1.98 | 1.14 | 3.26 | –
15 | Cc1nc(Nc2ccc(F)c(Cl)c2)c2cc(NC(=O)CCN(C)C)ccc2n1 | 1.86 | 0.11 | 1.04 | Active
16 | Fc1ccccc1Nc1ncnc2ccccc12 | 69.3 | 10.6 | 93.9 | –
